System: corneodesmosine
Test: Exfoliation test by measurement of the degradation of corneodesmosines (immunoblot of stratum corneum acetone powders, antibody G36-19, 46 kDa band)
Type: biochemical, human
Settings: for Percentage increase in the degradation of corneodesmosine: aqueous solution containing 2% of active ingredient, pH 8.0, incubation 8 h at 34° C., relative to control without active ingredient; for % increase in the degradation of corneodesmosine: comparative chelating agents tested in the same manner as Example 1 (2% active ingredient, pH 8.0, 8 h at 34° C.)
Source text: Exfoliation Test by Measurement of the Degradation of Corneodesmosines
This Example studies the capacity of trisodium methylglycine diacetate to promote exfoliation by the degradation of corneodesmosines.
Corneodesmosine is one of the majority markers of exfoliation in the corneodesmosome. It is studied by immunoblotting after separation by electrophoresis and transfer to a membrane. […] The murine monoclonal antibody G36-19 is specific for corneodesmosine; it belongs to a series of antibodies directed against epidermal differentiation antigens, produced after the immunization of a mouse with a human plantar horny layer homogenate, and then characterized (Serre G. et al, J. Invest. Dermatol. 1991, 97(6), 1061-72).
Varnish strippings are performed on the lower legs of volunteers (modification of the procedure of Lundström A. and Egelrud T., Acta Derm. Venereol. (stockh) 71, 471-474, 1991). The nylon-varnish leaves associated with the corneocytes are immersed in acetone (1 ml/cm^2) to detach the corneocytes. The mixture is filtered then rinsed three times with the same volume of acetone in order to remove all traces of varnish. Finally, the mixture is dried under vacuum:
acetone-containing powders of stratum corneum are thus obtained.
The acetone-containing powders are divided up into 1 mg aliquots. 100 μl of aqueous solutions containing 2% of active ingredient, adjusted to pH 8.0, are added. Controls without active ingredient are prepared under the same conditions. Two incubation times are studied: t=0 and t=8 h. In the latter case, incubation takes place at 34° C. with agitation.
After incubation, the mixtures are centrifuged for 10 min at 10,000 g. The supernatant is removed and replaced with 100 μl of Laemmli buffer (0.0625 M Tris/HCl pH 6.8, 2% SDS, 200 mM DTT, 10% glycerol) for extraction of the proteins. The mixture is boiled for 10 min at 100° C. and then ground in a Potter mill. The mixture is centrifuged for 10 min at 10,000 g and the supernatant is then collected. It contains the corneodesmosomal proteins.
The total proteins are assayed by Bradford's method (Biorad kit). This allows an adjustment of the samples to 0.6 mg/ml and a true comparison of the treatments. The samples together with a Rainbow low-molecular standard (Amersham Pharmacia Biotech), in a ratio of ⅓, are separated by electrophoresis on 12% acrylamide gel for ½ h at 100 V and then for 1 h at 200 V. After electrophoresis, the proteins are transferred to an Immobilon-P membrane (Millipore) for 3 h at 60 V. The membrane is then incubated for 2 times 15 min in TBS-TL buffer (Tris 25 mM, 0.15 M NaCl pH 7.2, 0.05% Tween 20, 0.5% skimmed milk powder) to block the non-specific sites. Incubation with the antibody G36-19, in a ratio of 1/12,500, is performed overnight at 4° C. After two rinses of 5 min in TBS-TL, the membrane is incubated with an IG(H+L) anti-mouse goat antibody/peroxidase conjugate (Biorad), in a ratio of 1/4000, for 1 h 30 min at room temperature. After several rinses of 5 min in TBS-TL and then TBS (without milk or Tween), the membrane is incubated for 1 min in 10 ml of ECL reagent (Amersham Pharmacia Biotech). The chemiluminescence of the corneodesmosine bands is measured with FluorS Multimager (Biorad). The 46 kDa band is quantified using the Quantity-one software (Biorad).
Glycine is used as a reference compound in this study, it having been shown in patent application EP-A2-0 852 949 (Shiseido) that glycine promotes the degradation of desmoglein (corneodesmosomal protein). […]

Compound | Percentage increase in the degradation of corneodesmosine | % increase in the degradation of corneodesmosine | effect on the degradation of corneodesmosines (in words) (2% active ingredient, pH 8.0, 8 h at 34° C.)
NCC(=O)O [Glycine] | 30% |  | 
CCCCCCCCCCCC(=O)N(CCN(CC(=O)O)CC(=O)O)CC(=O)O [Lauroylethylenediaminetriacetic acid, lauroylethylenediaminetriacetic acid] |  | −80% | 
N=C(CC(=O)[O-])C(=O)[O-].[Na+].[Na+] [Na iminosuccinate, sodium iminosuccinate] |  | −79% | 
CC(C(=O)[O-])N(CC(=O)[O-])CC(=O)[O-].[Na+].[Na+].[Na+] (centres unmarked) [Trisodium methylglycine diacetate, trisodium methylglycine diacetate] | 59% |  | promotes the degradation of corneodesmosines
